≈ marks a conversion by molar mass, not a printed value.
Legend:
[1] = Determination of logD (1-octanol / phosphate buffer pH 7.4); assay type: physicochemical; conditions: 1-octanol/phosphate buffer, pH 7.4, pH 7.4, 1-octanol/phosphate buffer; read-out: Log D, pH 7.4
Method in brief: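 Each phase analysed by LCMS after 1 h shaking at 800 rpm and centrifugation, room temperature. Phases were mutually saturated 1-octanol and 100 mM phosphate buffer at pH 7.4. LogD derived from the phase concentrations.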

[2] = target: KRAS G12C (GMPPNP-loaded) and PI3Ka (Ras-binding domain) interaction (Homo sapiens (Human), UniProt P01116, C118S/C51S/C80L/G12C); experiment: Inhibition of KRAS G12C and PI3Ka binding (AlphaScreen); conditions: KRAS G12C loaded with GMPPNP, PI3Ka RBD, 2 hours preincubation; read-out: PI3K RBD K-Ras IC50
Method in brief: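 Biotin-AviTag Cys-light KRAS G12C (aa 1-169, C51S/C80L/C118S), GMPPNP-loaded, 1.5 nM, preincubated 2 h with compound, then His-tagged PI3Ka RBD (aa 157-300, 100 nM) plus AlphaScreen beads added for 60-90 min, RT. Buffer Hepes pH 7.4, 10 μM GMPPNP, 2% DMSO; 10-point 1:3 from 50 μM; 4-parameter IC50.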

[3] = Determination of kinetic solubility (pH 7.4); assay type: physicochemical; conditions: phosphate buffer, pH 7.4, aqueous buffer, kinetic from dmso stock, 50 mM phosphate buffer pH 7.4, read-out: Ksol, pH 7.4
Method in brief: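 Solubility taken from filtrate peak areas on a calibration curve (HPLC-UV, LC-MS/MS). Before filtration and centrifugation, compound was shaken for 2 h at room temperature in pH 7.4 50 mM phosphate buffer.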

[4] = target: KRAS G12C (GMPPNP-loaded) and cRAF (Ras-binding domain) interaction (Homo sapiens (Human), UniProt P01116, C118S/C51S/C80L/G12C); experiment: Inhibition of KRAS G12C and cRAF binding (AlphaScreen); conditions: KRAS G12C loaded with GMPPNP, cRaf RBD, 2 hours preincubation; read-out: Raf-1 RBD K-Ras IC50
Method in brief: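 AlphaScreen readout (680 nm excitation, 570 nm emission) of RBD binding after a 60-90 min bead step at room temperature. This step follows 2 h compound exposure of GMPPNP-preloaded KRAS G12C in Hepes pH 7.4 buffer with MgCl2 and 10 μM GMPPNP.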

KRAS G12C (GMPPNP-loaded) and cRAF (Ras-binding domain) interaction, sequence (P01116 other isoform, or with tags, fused parts or gaps G12C/C51S/C80L/C118S): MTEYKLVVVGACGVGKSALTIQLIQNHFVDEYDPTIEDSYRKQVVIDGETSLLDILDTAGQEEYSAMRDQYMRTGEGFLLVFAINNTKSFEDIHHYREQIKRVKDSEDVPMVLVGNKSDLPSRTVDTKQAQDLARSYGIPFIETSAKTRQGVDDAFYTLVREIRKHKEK
KRAS G12C (GMPPNP-loaded) and PI3Ka (Ras-binding domain) interaction, sequence (P01116 other isoform, or with tags, fused parts or gaps G12C/C51S/C80L/C118S): as above

| logD [1] | IC50 [2] | solubility kinetic at 2 h [3] | IC50 [4] | Structure (SMILES) |
| --- | --- | --- | --- | --- |
| 3.64 | < 0.01 µM | 4.93 µg/mL (≈ 6.54 µM) | < 0.01 µM | Cc1nccc(/C=C/C(=O)N2CCN(c3nc(OC[C@@]45CCCN4C[C@H](F)C5)nc4c(F)c(-c5cccc6ccc(F)c(Cl)c56)ncc34)C[C@@H]2CC#N)n1 [Compound 147] |
| 2.25 | < 0.01 µM | 83.8 µg/mL (≈ 111 µM) | < 0.01 µM | Cc1nccc(/C=C/C(=O)N2CCN(c3nc(OC[C@@]45CCCN4C[C@H](F)C5)nc4c(F)c(-c5nc(N)cc6cccc(Cl)c56)ncc34)C[C@@H]2CC#N)n1 [Compound 148] |
| 3.71 | < 0.01 µM | 0.41 µg/mL (≈ 0.536 µM) | < 0.01 µM | CC(C)c1nccc(/C=C/C(=O)N2CCN(c3nc(OC[C@@]45CCCN4C[C@H](F)C5)nc4c(F)c(-c5cccc6cccc(Cl)c56)ncc34)C[C@@H]2CC#N)n1 [Compound 151] |
| 4.36 | < 0.01 µM | 0.01 µg/mL (≈ 0.0131 µM) | < 0.01 µM | N#CC[C@H]1CN(c2nc(OC[C@@]34CCCN3C[C@H](F)C4)nc3c(F)c(-c4cccc5cccc(Cl)c45)ncc23)CCN1C(=O)/C=C/c1ccnc(C2CC2)n1 [Compound 154] |
| 2.78 | < 0.01 µM | 84.5 µg/mL (≈ 114 µM) | < 0.01 µM | Cc1nsc(/C=C/C(=O)N2CCN(c3nc(OCC45CCCN4CCC5)nc4c(F)c(-c5cccc6ccc(F)c(Cl)c56)ncc34)C[C@@H]2CC#N)n1 [Compound 156] |
| 2.75 | < 0.01 µM | 87.7 µg/mL (≈ 113 µM) | < 0.01 µM | N#CC[C@H]1CN(c2nc(OC[C@@]34CCCN3C[C@H](F)C4)nc3c(F)c(-c4cccc5ccc(F)c(Cl)c45)ncc23)CCN1C(=O)/C=C/CN1CC2(COC2)C1 [Compound 161] |
| 3.3 | < 0.01 µM | 108 µg/mL (≈ 149 µM) | < 0.01 µM | N#CC[C@H]1CN(c2nc(OCC34CCCN3CCC4)nc3c2CCN(c2cccc4cccc(Cl)c24)C3)CCN1C(=O)/C=C/CN1CCSCC1 [Compound 171] |
| 3.54 | 0.01 to 0.1 µM | 89 µg/mL (≈ 115 µM) | 0.01 to 0.1 µM | C[C@@H]1CN(C/C=C/C(=O)N2CCN(c3nc(OC[C@@]45CCCN4C[C@H](F)C5)nc4c(F)c(-c5cccc6cccc(Cl)c56)ncc34)C[C@@H]2CC#N)C[C@H](C)O1 [Compound 186] |
| 3.61 | < 0.01 µM | 84 µg/mL (≈ 109 µM) | < 0.01 µM | C[C@@H]1CN(C/C=C/C(=O)N2CCN(c3nc(OC[C@@]45CCCN4C[C@H](F)C5)nc4c(F)c(-c5cccc6cccc(Cl)c56)ncc34)C[C@@H]2CC#N)C[C@@H](C)O1 [Compound 187] |
| 3.86 | < 0.01 µM | 79.1 µg/mL (≈ 103 µM) | < 0.01 µM | C[C@H]1CN(C/C=C/C(=O)N2CCN(c3nc(OC[C@@]45CCCN4C[C@H](F)C5)nc4c(F)c(-c5cccc6cccc(Cl)c56)ncc34)C[C@@H]2CC#N)C[C@H](C)O1 [Compound 188] |
| 2.86 | < 0.01 µM | 94.7 µg/mL (≈ 125 µM) | < 0.01 µM | CO[C@H]1CCN(C/C=C/C(=O)N2CCN(c3nc(OC[C@@]45CCCN4C[C@H](F)C5)nc4c(F)c(-c5cccc6cccc(Cl)c56)ncc34)C[C@@H]2CC#N)C1 [Compound 190] |
| 3.18 | < 0.01 µM | 94.9 µg/mL (≈ 125 µM) | < 0.01 µM | CO[C@@H]1CCN(C/C=C/C(=O)N2CCN(c3nc(OC[C@@]45CCCN4C[C@H](F)C5)nc4c(F)c(-c5cccc6cccc(Cl)c56)ncc34)C[C@@H]2CC#N)C1 [Compound 191] |
| 4.69 | < 0.01 µM | 2.01 µg/mL (≈ 2.66 µM) | < 0.01 µM | Cc1nsc(/C=C/C(=O)N2CCN(c3nc(OC[C@@]45CCCN4C[C@H](F)C5)nc4c3C[C@@H](C)[C@H](c3nc(N)cc(C)c3C(F)(F)F)C4)C[C@@H]2CC#N)n1 [Compound 192] |
| 3.38 | < 0.01 µM | 90.2 µg/mL (≈ 128 µM) | < 0.01 µM | Cc1nccc(/C=C/C(=O)N2CCN(c3nc(OCC45CCCN4CCC5)nc4c3CCN(c3cccc5cccc(Cl)c35)C4)C[C@@H]2CC#N)n1 [Compound 202] |
| 4.2 | < 0.01 µM | 0.01 µg/mL (≈ 0.0128 µM) | < 0.01 µM | N#CC[C@H]1CN(c2nc(OC[C@@]34CCCN3C[C@H](F)C4)nc3c(F)c(-c4cccc5ccc(F)c(Cl)c45)ncc23)CCN1C(=O)/C=C/c1ccnc(C2CC2)n1 [Compound 208] |
| 4.02 | < 0.01 µM | 6.14 µg/mL (≈ 8.37 µM) | 0.01 to 0.1 µM | Cc1cc(/C=C/C(=O)N2CCN(c3nc(OC[C@@]45CCCN4C[C@H](F)C5)nc4c(F)c(-c5cccc6cccc(F)c56)ncc34)C[C@@H]2CC#N)nc(C)n1 [Compound 214] |
| 2.16 | < 0.01 µM | 16.5 µg/mL (≈ 23.6 µM) | < 0.01 µM | Cc1nccc(/C=C/C(=O)N2CCN(c3nc(OC[C@@]45CCCN4C[C@H](F)C5)nc4c(F)c(-c5cccc6ccccc56)ncc34)C[C@@H]2CC#N)n1 [Compound 215] |
| 2.01 | < 0.01 µM | 99.9 µg/mL (≈ 132 µM) | < 0.01 µM | CO[C@H]1CCN(C/C=C/C(=O)N2CCN(c3nc(OC[C@@]45CCCN4C[C@H](F)C5)nc4c(F)c(-c5cccc6ccc(F)c(F)c56)ncc34)C[C@@H]2CC#N)C1 [Compound 217] |
| 2.54 | < 0.01 µM | 56.4 µg/mL (≈ 74.6 µM) | < 0.01 µM | N#CC[C@H]1CN(c2nc(OC[C@@]34CCCN3C[C@H](F)C4)nc3c(F)c(-c4cccc5ccc(F)c(F)c45)ncc23)CCN1C(=O)/C=C/CN1C[C@H]2C[C@@H]1CO2 [Compound 218] |
| 2.76 | < 0.01 µM | 91.6 µg/mL (≈ 124 µM) | < 0.01 µM | CO[C@H]1CCN(C/C=C/C(=O)N2CCN(c3nc(OC[C@@]45CCCN4C[C@H](F)C5)nc4c(F)c(-c5cccc6cccc(F)c56)ncc34)C[C@@H]2CC#N)C1 [Compound 222] |
| 3 | < 0.01 µM | 118 µg/mL (≈ 153 µM) | < 0.01 µM | N#CC[C@H]1CN(c2nc(OC[C@@]34CCCN3C[C@H](F)C4)nc3c(F)c(-c4cccc5ccc(F)c(F)c45)ncc23)CCN1C(=O)/C=C/CN1C[C@H]2COC[C@H]2C1 [Compound 223] |
| 2.63 | < 0.01 µM | 103 µg/mL (≈ 137 µM) | 0.01 to 0.1 µM | CCc1c(F)ccc2cccc(-c3ncc4c(N5CCN(C(=O)/C=C/CN6CCOCC6)[C@@H](CC#N)C5)nc(OC[C@@]56CCCN5C[C@H](F)C6)nc4c3F)c12 [Compound 226] |
| 3.08 | < 0.01 µM | 94.8 µg/mL (≈ 123 µM) | < 0.01 µM | N#CC[C@H]1CN(c2nc(OC[C@@]34CCCN3C[C@H](F)C4)nc3c(F)c(-c4cccc5cccc(Cl)c45)ncc23)CCN1C(=O)/C=C/CN1C[C@H]2COC[C@H]2C1 [Compound 228] |
| 3.48 | < 0.01 µM | 21.3 µg/mL (≈ 28 µM) | < 0.01 µM | N#CC[C@H]1CN(c2nc(OC[C@@]34CCCN3C[C@H](F)C4)nc3c(F)c(-c4cccc5ccc(F)c(F)c45)ncc23)CCN1C(=O)/C=C/CN1CCSCC1 [Compound 238] |
| 2.81 | < 0.01 µM | 118 µg/mL (≈ 158 µM) | < 0.01 µM | C#Cc1c(F)ccc2cccc(-c3ncc4c(N5CCN(C(=O)/C=C/CN6CCOCC6)[C@@H](CC#N)C5)nc(OC[C@@]56CCCN5C[C@H](F)C6)nc4c3F)c12 [Compound 255] |

| Structure (SMILES) | logD [1] | IC50 [2] | solubility kinetic at 2 h [3] | IC50 [4] |
| --- | --- | --- | --- | --- |
| N#CC[C@H]1CN(c2nc(OC[C@@]34CCCN3C[C@H](F)C4)nc3c(F)c(-c4cccc5cccc(Cl)c45)ncc23)CCN1C(=O)/C=C/CN1C2COCC1C2 [Compound 189] | 2.96 | < 0.01 µM | 109 µg/mL (≈ 144 µM) | < 0.01 µM |
| N#CC[C@H]1CN(c2nc(OC[C@@]34CCCN3C[C@H](F)C4)nc3c(F)c(-c4cccc5ccc(F)c(F)c45)ncc23)CCN1C(=O)/C=C/CN1C2COCC1C2 [Compound 224] | 2.96 | < 0.01 µM | 84.6 µg/mL (≈ 112 µM) | < 0.01 µM |
| N#CC[C@H]1CN(c2nc(OC[C@@]34CCCN3C[C@H](F)C4)nc3c(F)c(-c4cccc5ccc(F)c(F)c45)ncc23)CCN1C(=O)/C=C/CN1CC2CC(C1)O2 [Compound 229] | 1.63 | < 0.01 µM | 69.9 µg/mL (≈ 92.3 µM) | < 0.01 µM |
| N#CC[C@H]1CN(c2nc(OC[C@@]34CCCN3C[C@H](F)C4)nc3c(F)c(-c4cccc(Cl)c4C4CC4)ncc23)CCN1C(=O)/C=C/CN1CC2CC(C1)O2 [Compound 244] | 3.13 | 0.01 to 0.1 µM | 121 µg/mL (≈ 163 µM) | < 0.01 µM |

From patent publication US20250129103A1, “METHODS FOR TREATMENT OF CANCER” (Frontier Medicines Corporation, priority 2022, published 2025)
